The record followed here is patent US7601722B2, “Aryl sulfamide derivatives and methods of their use” (Wyeth, priority 2006, dated 2009).

One data set concerns the target hNET (Homo sapiens, UniProt P23975). In words: hNET binding according to Mahaney et al. The settings on record: hNET binding per footnote, printed in the NE uptake column.
The target in data set [1] is Dopamine Transporter (hDAT) (Homo sapiens, UniProt Q01959). In words: Dopamine Transporter (hDAT) Membrane Binding Assay.
A short description of data set [2]: Rat Liver Microsomal Stability Assay. The settings on record: pH 7.4; rat liver microsomes, 37° C., NADPH, Time 0 and Time 15 min; read-out: RLM stability t1/2. Format: in vitro ADME. Here is the method: Rat Liver Microsomal Stability Assay:
DMSO stock solutions of test compounds were prepared at 0.5 mM concentration. Diluted solutions of test compounds were prepared by adding 50 uL of each DMSO stock solution to 200 uL of acetonitrile to make 0.1 mM solutions in 20% DMSO/80% acetonitrile. Rat liver microsomal solution was prepared by adding 1.582 mL of concentrated rat liver microsomes (20 mg/mL protein concentration) to 48.291 mL of pre-warmed (to 37° C.) 0.1M potassium phosphate buffer (pH 7.4) containing 127 uL of 0.5 M EDTA to make a 0.6329 mg/mL (protein) microsomal solution. 11.2 uL of each test compound diluted solution was each added directly to 885 uL of rat liver microsomal solution (allowing direct binding of drugs to microsomal proteins and lipids to minimize precipitation and non-specific binding to the plasticware). This solution was mixed and 180 uL was transferred to “Time 0” and “Time 15 min” plates (each in duplicate wells). For the Time 15 min plate, NADPH regenerating agent (45 uL) was added to each well to initiate the reaction, the plate was incubated at 37° C. for 15 min, followed by quenching of the reaction by adding 450 uL of cold acetonitrile to each well. For the Time 0 plate, 450 uL of cold acetonitrile was added to each well, followed by addition of NADPH regenerating agent (45 uL) and no incubation. All of the plates were centrifuged at 3000 rpm for 15 min and the supernatants were transferred to other well plates for analysis by LC-MS.

Data set [3] addresses T1, Cloned Human NE Transporters (Homo sapiens, UniProt P23975).
T1 construct: expressed in transfected cells; host or cells: MDCK
Briefly: hNET Assay Procedure Protocol A: inhibition of [3H] NE uptake (MDCK cells) (hNET uptake). Format: cell-based. The settings on record: MDCK cells expressing hNET, [3H] NE 16 nM. The protocol:
hNET Assay Procedure Protocol A: Inhibition of [^3H] NE Uptake into Cloned Human NE Transporters (MDCK Cells) (“hNET uptake”)
[^3H] […] Cells were seeded at 300,000/T75 flask, and split twice weekly.
All uptake experiments were performed in 96-well plates (Falcon Optilux, cat #353947) in a total volume of 250 μl/well. MDCK cells were plated at 50,000 cells/well. […] 25 μl of each test compound was subsequently added to plates in triplicate and incubated at 37° C. for 5 minutes. All test compounds were dissolved in 100% DMSO and diluted in 4% DMSO/H2O, and assayed using a 7-point dose response curve (1 nM-10 μM). Next, 25 μl of [^3H] NE (74.9 Ci/mmol, Perkin Elmer, Boston, Mass.) was added to all wells and incubated at 37° C. for an additional 5 minutes. Non-specific uptake was defined by 20 μM desipramine. The final concentrations of [^3H] NE was 16 nM, respectively. The reaction was terminated by aspiration and washed with ice cold 50 mM Tris (pH 7.4). […] 100 μl of Microscint-20 were added to each well (Packard, Perkin Elmer, Boston, Mass.), and the plates were counted using a TopCount (Perkin Elmer, Downer's Grove, Ill.) liquid scintillation counter. […]
IC50 values were calculated using a Prism® nonlinear regression program where % inhibition is plotted versus concentration of inhibitor.

The structures appear in SMILES notation. Counter-ions that a name gives are not always drawn.

Sequence of Dopamine Transporter (hDAT) (Q01959 whole entry): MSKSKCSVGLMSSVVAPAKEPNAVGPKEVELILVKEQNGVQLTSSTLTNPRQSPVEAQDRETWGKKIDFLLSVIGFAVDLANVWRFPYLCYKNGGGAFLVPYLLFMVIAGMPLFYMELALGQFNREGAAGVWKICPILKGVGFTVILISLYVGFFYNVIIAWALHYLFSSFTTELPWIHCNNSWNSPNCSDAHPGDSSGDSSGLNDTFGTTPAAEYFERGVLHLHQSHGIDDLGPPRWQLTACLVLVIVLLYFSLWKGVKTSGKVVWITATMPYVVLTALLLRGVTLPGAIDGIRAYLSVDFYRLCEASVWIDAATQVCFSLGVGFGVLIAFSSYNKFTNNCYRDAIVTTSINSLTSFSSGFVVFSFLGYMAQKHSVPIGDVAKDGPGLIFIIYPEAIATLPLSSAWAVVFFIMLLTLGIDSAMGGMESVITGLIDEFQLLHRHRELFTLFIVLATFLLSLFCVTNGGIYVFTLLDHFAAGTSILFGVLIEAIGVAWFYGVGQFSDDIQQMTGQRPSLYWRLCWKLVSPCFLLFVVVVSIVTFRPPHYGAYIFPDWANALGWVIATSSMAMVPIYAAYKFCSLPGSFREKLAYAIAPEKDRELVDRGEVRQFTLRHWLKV
Sequence of hNET (P23975 whole entry): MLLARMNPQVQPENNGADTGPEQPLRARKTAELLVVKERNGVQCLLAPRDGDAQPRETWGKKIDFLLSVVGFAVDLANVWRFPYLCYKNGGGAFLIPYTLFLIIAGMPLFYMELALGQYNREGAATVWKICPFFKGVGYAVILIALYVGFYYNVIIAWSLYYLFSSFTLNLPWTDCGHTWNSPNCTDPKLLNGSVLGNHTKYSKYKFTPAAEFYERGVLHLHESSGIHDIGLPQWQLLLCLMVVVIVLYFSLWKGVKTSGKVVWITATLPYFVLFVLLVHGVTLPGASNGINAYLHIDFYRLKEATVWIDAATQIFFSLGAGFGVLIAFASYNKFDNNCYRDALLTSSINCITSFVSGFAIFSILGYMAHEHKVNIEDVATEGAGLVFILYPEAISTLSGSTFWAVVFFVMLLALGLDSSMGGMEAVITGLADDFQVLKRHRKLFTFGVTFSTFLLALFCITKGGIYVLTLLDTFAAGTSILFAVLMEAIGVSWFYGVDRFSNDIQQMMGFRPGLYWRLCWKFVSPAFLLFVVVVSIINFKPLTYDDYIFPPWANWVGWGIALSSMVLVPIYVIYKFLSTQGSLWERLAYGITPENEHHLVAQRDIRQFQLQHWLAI
T1 sequence (P23975 whole entry): as above

The compound `NCC1CCN(CCN2c3ccccc3N(c3ccccc3)S2(=O)=O)C1` (stereo not shown) [Example 105, 1-{1-[2-(2,2-dioxido-3-phenyl-2,1,3-benzothiadiazol-1(3H)-yl)ethyl]pyrrolidin-3-yl}methanamine dihydrochloride] yielded a concentration for half-maximal inhibition (IC50) at hNET of 289 nM. In the case of `O=S1(=O)N(CC[C@H]2CNCCO2)c2ccccc2N1c1ccccc1` [Example 135, 1-{2-[(2S)-morpholin-2-yl]ethyl}-3-phenyl-1,3-dihydro-2,1,3-benzothiadiazole2,2-dioxide], the IC50 in data set [1] came out at 479 nM. The half-life at 1 µM in data set [2] was found to be 5 min. `O=S1(=O)N(CC[C@@H]2CNCCO2)c2ccccc2N1c1ccccc1` [Example 136, 1-{2-[(2R)-morpholin-2-yl]ethyl}-3-phenyl-1,3-dihydro-2,1,3-benzothiadiazole2,2-dioxide] yielded a half-maximal inhibitory concentration (IC50) in data set [1] of 598 nM. The half-life at 1 µM in data set [2] was determined as 3 min. On to `O=S1(=O)N(CCC2CNCCO2)c2ccccc2N1c1ccc(F)cc1` (stereo not shown) [Example 137, 1-(4-fluorophenyl)-3-(2-morpholin-2-ylethyl)-1,3-dihydro-2,1,3-benzothiadiazole 2,2-dioxide], for which the half-life at 1 µM in data set [2] was 9 min. On to `O=S1(=O)N(CC[C@@H]2CNCCO2)c2ccccc2N1c1ccc(F)cc1` [Example 139, 1-(4-fluorophenyl)-3-{2-[(2R)-morpholin-2-yl]ethyl}-1,3-dihydro-2,1,3-benzothiadiazole2,2-dioxide], for which the half-life at 1 µM in data set [2] worked out at 10 min. On the same count and under the same terms, the same measure for `O=S1(=O)N(CC[C@H]2CNCCO2)c2ccccc2N1c1ccc(F)cc1F` [Example 141, 1-(2,4-difluorophenyl)-3-{2-[(2S)-morpholin-2-yl]ethyl}-1,3-dihydro-2,1,3-benzothiadiazole2,2-dioxide]: 2 min. Turning to `COc1cccc(N2c3ccccc3N(CC[C@H]3CNCCO3)S2(=O)=O)c1` [Example 146, 1-(3-methoxyphenyl)-3-{2-[(2S)-morpholin-2-yl]ethyl}-1,3-dihydro-2,1,3-benzothiadiazole2,2-dioxide], the half-life at 1 µM in data set [2] came to 5 min. With `O=S1(=O)N(CC[C@H]2CNCCO2)c2ccccc2N1c1ccccc1F` [Example 148, 1-(2-fluorophenyl)-3-{2-[(2S)-morpholin-2-yl]ethyl}-1,3-dihydro-2,1,3-benzothiadiazole2,2-dioxide], in data set [1], the 50% inhibitory concentration (IC50) was found to be 1400 nM. In addition, the half-life at 1 µM in data set [2] was 4 min. As to `O=S1(=O)N(CC[C@@H]2CNCCO2)c2ccccc2N1c1ccccc1F` [Example 149, 1-(2-fluorophenyl)-3-{2-[(2R)-morpholin-2-yl]ethyl}-1,3-dihydro-2,1,3-benzothiadiazole2,2-dioxide], the half-maximal inhibitory concentration (IC50) in data set [1] was 2190 nM. The half-life at 1 µM in data set [2] was 5 min. Turning to `O=S1(=O)N(CC[C@H]2CNCCO2)c2ccccc2N1c1c(F)cccc1F` [Example 150, 1-(2,6-difluorophenyl)-3-{2-[(2S)-morpholin-2-yl]ethyl}-1,3-dihydro-2,1,3-benzothiadiazole2,2-dioxide], the half-life at 1 µM in data set [2] came out at 3 min. `CN(C)CCOCCN1c2ccccc2N(c2ccc(F)cc2F)S1(=O)=O` [Example 170, 2-{2-[3-(2,4-difluorophenyl)-2,2-dioxido-2,1,3-benzothiadiazol-1(3H)-yl]ethoxy}-N,N-dimethylethanamine hydrochloride]: at hNET, the IC50 turned out to be 207 nM. In data set [3], `O=S1(=O)N(CCCCN2CCOCC2)c2ccccc2N1c1ccc(Cl)cc1` [Example 180, 1-(4-chlorophenyl)-3-(4-morpholin-4-ylbutyl)-1,3-dihydro-2,1,3-benzothiadiazole2,2-dioxide] yielded a 50% inhibitory concentration (IC50) of 1760 nM.
